Reference: patent publication US11325955B2, “Stabilized anti-microbial peptides for the treatment of antibiotic-resistant bacterial infections” (priority 2017, dated 2022)
In brackets after ≈: the same amount, converted by molar mass. Read-outs that look alike come from different tables or passages of the source. Positions of bridges follow the written chain, without caps; N, C: chain ends. Non-standard residues stand in square brackets, D forms with d. Residues, ends and D or L forms follow the SMILES beside them. S5 = C=CCCC[C@](C)(N)C(=O)O; Nle = CCCC[C@H](N)C(=O)O

What was measured:
[1] = tested on: human red blood cells (RBCs); test: Hemolytic activity assay; type: cell-based; settings: peptide at 25 μg/ml, 1 hour at 37° C.
Protocol: For the determination of hemolytic activity, human blood samples were centrifuged to isolate red blood cells (RBCs), which are then washed and suspended in phosphate-buffered saline to yield a 1% (v/v) suspension. The suspension was then added to serial dilutions of peptide stocks in water in clear round-bottom polypropylene 96-well plates and the plates were incubated for 1 hour at 37° C. After incubation, the plates were centrifuged and the supernatant was isolated to determine the amount of hemoglobin released using a spectrophotometer (570 nm), according to the equation: % Hemolysis=(Treated Absorbance−Untreated Control Absorbance)/(1% Triton-X100 Treated Absorbance−Untreated Control Absorbance). The minimum hemolytic concentration (MHC) is the peptide concentration at which there is less than 1% hemoglobin release.

[2] = tested on: Methicillin-resistant S Aureus; type: cell-based
Protocol: (§1) The following microbroth dilution protocol was adapted to determine the minimum inhibitory concentration (MIC) of each peptide. First, Mueller-Hinton broth (MHB) was passed through an anion exchange column to remove polyanionic species and generate refined MHB. […] Briefly, bacterial cells were grown overnight in refined MHB at 37° C. and then diluted and allowed to grow again for several hours. Serial dilutions of peptide stocks in water (10 μl) were prepared using clear round-bottom polypropylene 96-well plates. Then 90 μl of bacteria in refined MHB was added to give a final inoculum of 5×10^5 CFU/ml. The plates were then covered with porous tape to reduce evaporation, and incubated for 20-24 hours at 37° C. The MIC is the minimum peptide concentration at which no visible growth was observed.
(§2) StAMPs Mag(i+4)2,15(A9K), Pleu(i+4)1,15(A9K) and Pleu(i+4)1,15 were also then tested against 4 clinical isolates of S. aureus of which two were methicillin-susceptible (MSSA) and two were methicillin-resistant (MRSA) (Table 5).

[3] = tested on: Methicillin-susceptible S Aureus; type: cell-based
Protocol: as §1, §2

[4] = tested on: E. coli clinical isolates that harbor the MCR-1 plasmid; type: cell-based
Protocol: StAMPs were screened against a panel of MDR clinical samples obtained from the Antimicrobial Resistance Isolate Bank of the Centers for Disease Control and Prevention (Atlanta, Ga.).
as §1
The first three StAMPs of Table 2 in Example 3 were then tested against 39 clinical isolates of A. baumannii with various degrees of colistin resistance (Table 3, 4).

[5] = tested on: B cereus; type: cell-based
Protocol: as §1

[6] = tested on: P aeruginosa; type: cell-based
Protocol: as §1

[7] = tested on: A baumannii; type: cell-based
Protocol: as §1

[8] = tested on: E coli; type: cell-based
Protocol: as §1

[9] = tested on: S aureus; type: cell-based
Protocol: as §1

[10] = tested on: primary human renal proximal tubule epithelial cells (pRPTECs); test: Renal toxicity assay (pRPTEC lysis, LDH release)
Protocol: (§3) In one embodiment, pRPTECs are seeded at a density of 10,000 cells per well on 96 well plates and incubated for 48 hours at 37° C. Cells are then treated with different concentrations of the StAMP and incubated for another 24-to-48 hour period. Cell viability is then determined and/or lactate dehydrogenase (LDH) release is measured.
(§4) Briefly, pRPTECs in complete growth cell medium were seeded in a 96 well plate at a density of 10,000 cells per well and incubated at 37° C. for 48 hours. Complete medium was then removed and replaced with a toxicity assay medium to which various concentrations of StAMP were added. Cells were then further incubated for 24 to 48 hours after which cell medium was collected and assayed for the presence of Lactate Dehydrogenase (LDH) using a Cytotoxicity Detection Kit (LDH) (Roche).

[11] = tested on: primary human renal proximal tubule epithelial cells (pRPTECs); settings: for pRPTEC lysis (% LDH release) compared to Mag(i+4)1,15(A9K): 90 minute incubation, FIG. 2; for pRPTEC lysis (% LDH release), long-term lytic activity: 48 hours incubation, FIG. 3
Protocol: as §3, §4

[12] = E. coli CDC Bank# 346, contains MCR-1 plasmid
[13] = E. coli CDC Bank# 349, contains MCR-1 plasmid

Structure (SMILES) | % Hemolysis at 25 μg/ml [1] [%] | Antimicrobial Activity MIC [2] [µg/mL] | Antimicrobial Activity MIC [3] [µg/mL] | Antimicrobial Activity MIC [4, 12] [µg/mL] | Antimicrobial Activity MIC [4, 13] [µg/mL] | MIC B cereus [5] [µg/mL] | MIC P aeruginosa [6] [µg/mL] | MIC A baumannii [7] [µg/mL] | MIC E coli [8] [µg/mL] | MIC S aureus [9] [µg/mL] | toxicity on pRPTECs (membranolysis) [10] | pRPTEC lysis (% LDH release) compared to Mag(i+4)1,15(A9K) [11] | pRPTEC lysis (% LDH release), long-term lytic activity [11]
CC(C)C[C@H](NC(=O)[C@H](Cc1ccc(O)cc1)NC(=O)[C@H](Cc1c[nH]cn1)NC(=O)[C@@H](NC(=O)[C@H](CC(C)C)NC(=O)[C@]1(C)CCCC=CCCC[C@](C)(NC(=O)[C@H](Cc2c[nH]cn2)NC(=O)[C@H](CCCCN)NC(=O)CNC(=O)[C@@H](NC(=O)[C@H](Cc2c[nH]cn2)NC(=O)[C@H](C)NC(=O)[C@H](C)NC(=O)[C@H](CCCCN)NC(=O)[C@H](CCCCN)NC(=O)[C@]2(C)CCCC=CCCC[C@](C)(NC(=O)CN)C(=O)NCC(=O)N[C@@H](CO)C(=O)N[C@@H](Cc3ccccc3)C(=O)N2)C(C)C)C(=O)NCC(=O)N[C@@H](CCCCN)C(=O)N[C@@H](C)C(=O)N1)[C@@H](C)O)C(N)=O [Pleu(i+4)1,15, GXGSFXKKAAHVGKHXGKAXLTHYL] (H-G[S5]GSF[S5]KKAAHVGKH[S5]GKA[S5]LTHYL-NH2; staple 2-6, 16-20) | 88.2 | 3.1 | 3.1 | – | – | – | – | – | – | – | – | – | –
CC(C)C[C@H](NC(=O)[C@H](Cc1ccc(O)cc1)NC(=O)[C@H](Cc1c[nH]cn1)NC(=O)[C@@H](NC(=O)[C@H](CC(C)C)NC(=O)[C@]1(C)CCCC=CCCC[C@](C)(NC(=O)[C@H](Cc2c[nH]cn2)NC(=O)[C@H](CCCCN)NC(=O)CNC(=O)[C@@H](NC(=O)[C@H](Cc2c[nH]cn2)NC(=O)[C@H](C)NC(=O)[C@H](CCCCN)NC(=O)[C@H](CCCCN)NC(=O)[C@H](CCCCN)NC(=O)[C@]2(C)CCCC=CCCC[C@](C)(NC(=O)CN)C(=O)NCC(=O)N[C@@H](CO)C(=O)N[C@@H](Cc3ccccc3)C(=O)N2)C(C)C)C(=O)NCC(=O)N[C@@H](CCCCN)C(=O)N[C@@H](C)C(=O)N1)[C@@H](C)O)C(N)=O [Pleu(i+4)1,15(A9K), GXGSFXKKKAHVGKHXGKAXLTHYL] (H-G[S5]GSF[S5]KKKAHVGKH[S5]GKA[S5]LTHYL-NH2; staple 2-6, 16-20) | 16.3 | 3.1 | 3.1 | 1.6 | 1.6 | – | – | – | – | – | – | – | –
CCCC[C@H](NC(=O)[C@]1(C)CCCC=CCCC[C@](C)(NC(=O)[C@H](C)NC(=O)[C@H](CCCCN)NC(=O)CNC(=O)[C@H](Cc2ccccc2)NC(=O)[C@H](CCCCN)NC(=O)[C@H](CCCCN)NC(=O)[C@H](CCCCN)NC(=O)[C@H](CO)NC(=O)[C@H](Cc2c[nH]cn2)NC(=O)[C@]2(C)CCCC=CCCC[C@](C)(NC(=O)CN)C(=O)NCC(=O)N[C@@H](CCCCN)C(=O)N[C@@H](Cc3ccccc3)C(=O)N2)C(=O)N[C@@H](C(C)C)C(=O)NCC(=O)N[C@@H](CCC(=O)O)C(=O)N1)C(=O)N[C@@H](CC(N)=O)C(=O)N[C@@H](CO)C(N)=O [Mag(i+4)1,15(A9K), GXGKFXHSKKKFGKAXVGEXBNS] (H-G[S5]GKF[S5]HSKKKFGKA[S5]VGE[S5][Nle]NS-NH2; staple 2-6, 16-20) | 1.9 | – | – | 1.6 | 3.1 | 6.2 (≈ 2.46 µM) | 3.1 (≈ 1.23 µM) | 1.6 (≈ 0.635 µM) | 1.6 (≈ 0.635 µM) | 50 (≈ 19.8 µM) | could cause membranolysis of pRPTECs at relatively low concentrations | – | –
CC(C)[C@@H]1NC(=O)[C@@](C)(NC(=O)[C@H](C)NC(=O)[C@H](CCCCN)NC(=O)CNC(=O)[C@H](Cc2ccccc2)NC(=O)[C@H](CCCCN)NC(=O)[C@H](CCCCN)NC(=O)[C@H](CCCCN)NC(=O)[C@H](CO)NC(=O)[C@H](Cc2c[nH]cn2)NC(=O)[C@]2(C)CCCC=CCCC[C@](C)(NC(=O)CN)C(=O)NCC(=O)N[C@@H](CCCCN)C(=O)N[C@@H](Cc3ccccc3)C(=O)N2)CCCC=CCCC[C@@](C)(C(=O)N[C@@H](C)C(=O)N[C@@H](CCCCN)C(=O)N[C@@H](CCCCN)C(N)=O)NC(=O)[C@H](CCC(=O)O)NC(=O)CNC1=O [Mag(i+4)1,15(A9K, B21A, N22K, S23K), GXGKFXHSKKKFGKAXVGEXAKK] (H-G[S5]GKF[S5]HSKKKFGKA[S5]VGE[S5]AKK-NH2; staple 2-6, 16-20) | – | – | – | – | – | 50 (≈ 19.7 µM) | 3.1 (≈ 1.22 µM) | 0.8 (≈ 0.316 µM) | 1.6 (≈ 0.632 µM) | >50 | – | markedly reduced lytic activity toward pRPTECs | lowered long-term lytic activity
CCCC[C@H](NC(=O)[C@]1(C)CCCC=CCCC[C@](C)(NC(=O)[C@H](C)NC(=O)[C@H](CCCCN)NC(=O)CNC(=O)[C@H](Cc2ccccc2)NC(=O)[C@H](CCCCN)NC(=O)[C@H](CCCCN)NC(=O)[C@H](CCCCN)NC(=O)[C@H](CO)NC(=O)[C@]2(C)CCCC=CCCC[C@](C)(NC(=O)[C@@H](NC(=O)CN)[C@@H](C)CC)C(=O)N[C@@H](CCCCN)C(=O)N[C@@H](Cc3ccccc3)C(=O)N[C@@H](CC(C)C)C(=O)N2)C(=O)N[C@@H](C(C)C)C(=O)NCC(=O)N[C@@H](CCC(=O)O)C(=O)N1)C(=O)N[C@@H](CC(N)=O)C(=O)N[C@@H](CO)C(N)=O [Mag(i+4)2,15(A9K), GIXKFLXSKKKFGKAXVGEXBNS] (H-GI[S5]KFL[S5]SKKKFGKA[S5]VGE[S5][Nle]NS-NH2; staple 3-7, 16-20) | 17.9 | 1.6 | 1.6 | 2.2 | 3.1 | – | – | – | – | – | – | – | –
CC(C)[C@@H]1NC(=O)[C@@](C)(NC(=O)[C@H](C)NC(=O)[C@H](CCCCN)NC(=O)CNC(=O)[C@H](Cc2ccccc2)NC(=O)[C@H](CCCCN)NC(=O)[C@H](CCCCN)NC(=O)[C@H](CCCCN)NC(=O)[C@H](CO)NC(=O)[C@H](Cc2c[nH]cn2)NC(=O)[C@]2(C)CCCC=CCCC[C@](C)(NC(=O)CN)C(=O)NCC(=O)N[C@@H](CCCCN)C(=O)N[C@@H](Cc3ccccc3)C(=O)N2)CCCC=CCCC[C@@](C)(C(=O)N[C@@H](CCCCN)C(=O)N[C@@H](CC(N)=O)C(=O)N[C@@H](CO)C(N)=O)NC(=O)[C@H](CCC(=O)O)NC(=O)CNC1=O [Mag(i+4)1,15(A9K, B21K), GXGKFXHSKKKFGKAXVGEXKNS] (H-G[S5]GKF[S5]HSKKKFGKA[S5]VGE[S5]KNS-NH2; staple 2-6, 16-20) | – | – | – | – | – | 35.4 (≈ 14 µM) | 12.5 (≈ 4.93 µM) | 1.6 (≈ 0.631 µM) | 3.1 (≈ 1.22 µM) | >50 | – | markedly reduced lytic activity toward pRPTECs | lowered long-term lytic activity
